Laboratory results as given in PubChem BioAssay AID1963443 (Molecular Pharmacology Branch, DTP, NCI, 2024).

System: MDA-MB-231 complex spheroids, growth inhibition
Assay: Anticancer human tumor MDA-MB-231 cell line growth inhibition [Asc];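 note: spheroids exposed to compounds for 7 days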
Conditions: for IC50: curve of first compound; for viability, T/C: stronger effect = lower value
How it was run: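 Complex solid-tumor spheroids incorporating human endothelial and mesenchymal stem cells received single agents or combinations over half-log dilution ranges anchored to clinical Cmax.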

C#Cc1c(F)ccc2cc(O)cc(-c3ncc4c(N5CC6CCC(C5)N6)nc(OCC56CCCN5CC(F)C6)nc4c3F)c12 (stereo not given) + Cc1c(S(C)(=O)=O)c(-c2cc(F)cc(N3CCN(c4ccc(NS(=O)(=O)c5ccc(NC(CCN6CCC(C(=O)OCCCP(=O)(O)O)CC6)CSc6ccccc6)c(S(=O)(=O)C(F)(F)F)c5)cc4)CC3)c2)c(-c2ccc(Cl)cc2)n1C(C)C
IC50 (second compound 0.1 µM): > 10000 nM | IC50 (second compound 0.316 µM): 7530 nM | IC50 (second compound 1 µM): 4700 nM | IC50 (second compound 3.16 µM): 3260 nM | IC50 (second compound 10 µM): 3280 nM | viability, T/C (second compound 0.1 µM, first compound 0.0316 µM): 96.6% | viability, T/C (second compound 0.1 µM, first compound 0.1 µM): 103% | viability, T/C (second compound 0.1 µM, first compound 0.316 µM): 95.6% | viability, T/C (second compound 0.1 µM, first compound 1 µM): 73.6% | viability, T/C (second compound 0.1 µM, first compound 3.16 µM): 68.7% | viability, T/C (second compound 0.1 µM, first compound 10 µM): 50.7% | viability, T/C (second compound 0.316 µM, first compound 0.0316 µM): 105% | viability, T/C (second compound 0.316 µM, first compound 0.1 µM): 104% | viability, T/C (second compound 0.316 µM, first compound 0.316 µM): 98.3% | viability, T/C (second compound 0.316 µM, first compound 1 µM): 76.6% | viability, T/C (second compound 0.316 µM, first compound 3.16 µM): 63.4% | viability, T/C (second compound 0.316 µM, first compound 10 µM): 45.5% | viability, T/C (second compound 1 µM, first compound 0.0316 µM): 102% | viability, T/C (second compound 1 µM, first compound 0.1 µM): 96.8% | viability, T/C (second compound 1 µM, first compound 0.316 µM): 101% | viability, T/C (second compound 1 µM, first compound 1 µM): 74.2% | viability, T/C (second compound 1 µM, first compound 3.16 µM): 59.6% | viability, T/C (second compound 1 µM, first compound 10 µM): 36.1% | viability, T/C (second compound 3.16 µM, first compound 0.0316 µM): 93.3% | viability, T/C (second compound 3.16 µM, first compound 0.1 µM): 94.6% | viability, T/C (second compound 3.16 µM, first compound 0.316 µM): 97.7% | viability, T/C (second compound 3.16 µM, first compound 1 µM): 72.2% | viability, T/C (second compound 3.16 µM, first compound 3.16 µM): 52.9% | viability, T/C (second compound 3.16 µM, first compound 10 µM): 23.3% | viability, T/C (second compound 10 µM, first compound 0.0316 µM): 97.2% | viability, T/C (second compound 10 µM, first compound 0.1 µM): 97.2% | viability, T/C (second compound 10 µM, first compound 0.316 µM): 99% | viability, T/C (second compound 10 µM, first compound 1 µM): 89.5% | viability, T/C (second compound 10 µM, first compound 3.16 µM): 51.3% | viability, T/C (second compound 10 µM, first compound 10 µM): 12.7%

Cc1nc(N2CCC3(CC2)COC(C)C3N)c(CO)nc1Sc1ccnc(N)c1Cl (stereo not given) + Cc1c(S(C)(=O)=O)c(-c2cc(F)cc(N3CCN(c4ccc(NS(=O)(=O)c5ccc(NC(CCN6CCC(C(=O)OCCCP(=O)(O)O)CC6)CSc6ccccc6)c(S(=O)(=O)C(F)(F)F)c5)cc4)CC3)c2)c(-c2ccc(Cl)cc2)n1C(C)C
IC50 (second compound 0.1 µM): 201 nM | IC50 (second compound 0.316 µM): 249 nM | IC50 (second compound 1 µM): 179 nM | IC50 (second compound 3.16 µM): 162 nM | IC50 (second compound 10 µM): 162 nM | viability, T/C (second compound 0.1 µM, first compound 0.00949 µM): 97.2% | viability, T/C (second compound 0.1 µM, first compound 0.03 µM): 90.9% | viability, T/C (second compound 0.1 µM, first compound 0.0949 µM): 76.8% | viability, T/C (second compound 0.1 µM, first compound 0.3 µM): 37% | viability, T/C (second compound 0.1 µM, first compound 0.949 µM): 1.43% | viability, T/C (second compound 0.1 µM, first compound 3 µM): 0.95% | viability, T/C (second compound 0.316 µM, first compound 0.00949 µM): 108% | viability, T/C (second compound 0.316 µM, first compound 0.03 µM): 99.8% | viability, T/C (second compound 0.316 µM, first compound 0.0949 µM): 88.9% | viability, T/C (second compound 0.316 µM, first compound 0.3 µM): 44.1% | viability, T/C (second compound 0.316 µM, first compound 0.949 µM): 1.42% | viability, T/C (second compound 0.316 µM, first compound 3 µM): 1.39% | viability, T/C (second compound 1 µM, first compound 0.00949 µM): 102% | viability, T/C (second compound 1 µM, first compound 0.03 µM): 94% | viability, T/C (second compound 1 µM, first compound 0.0949 µM): 81.6% | viability, T/C (second compound 1 µM, first compound 0.3 µM): 24.7% | viability, T/C (second compound 1 µM, first compound 0.949 µM): 0.73% | viability, T/C (second compound 1 µM, first compound 3 µM): 1.11% | viability, T/C (second compound 3.16 µM, first compound 0.00949 µM): 95.6% | viability, T/C (second compound 3.16 µM, first compound 0.03 µM): 93.4% | viability, T/C (second compound 3.16 µM, first compound 0.0949 µM): 78.7% | viability, T/C (second compound 3.16 µM, first compound 0.3 µM): 17% | viability, T/C (second compound 3.16 µM, first compound 0.949 µM): 1.15% | viability, T/C (second compound 3.16 µM, first compound 3 µM): 0.34% | viability, T/C (second compound 10 µM, first compound 0.00949 µM): 106% | viability, T/C (second compound 10 µM, first compound 0.03 µM): 103% | viability, T/C (second compound 10 µM, first compound 0.0949 µM): 82% | viability, T/C (second compound 10 µM, first compound 0.3 µM): 12.9% | viability, T/C (second compound 10 µM, first compound 0.949 µM): 0.64% | viability, T/C (second compound 10 µM, first compound 3 µM): 0.34%
